Measurements published in patent US12285011B2, “Insecticidal formulation for vector and pest control with increased contact efficacy” (DISCOVERY PURCHASER CORPORATION, priority 2018, dated 2025).
Like-named read-outs stand apart in the source and are kept apart here.

Experiment: Water solubility at pH 7 (HPLC-MS)
Format: physicochemical
Details: thermodynamic from solid
Procedure: In another preferred embodiment of the invention the insecticidal active ingredient—matrix particles comprise one insecticidal active ingredient with the above indicated physicochemical properties. The melting points according to the invention are measured under standard conditions (1 atmosphere). Water solubility are indicated in percentage referring to the quotient of (g) gram insecticidal active ingredient/100 ml water. Water solubility is preferably measured with liquid chromatography e.g. with a HPLC-MS system (at 20° C., 1 atmosphere and pH 7, see also example 1 as a reference).
The reported water solubilities as shown in table 1 are determined as follows: Preparation of calibration standards: A 1000 ppm solution of the analyte in acetonitrile is prepared and from this at least three calibration points are obtained by dilution with acetonitrile going down to 0.01 mg/L, if needed. Sample Preparation: Two cavities of a deepwell are filled each with about 0.6 mg of homogenized sample and 500 μL of a pH 7 phosphate buffer is added. A glass pearl is added to each cavity, the deepwell is sealed and shaken for at least 24 h at 1600 rpm at 23° C. After the shaking procedure the solution is filtered. Aliquots of the filtrates are analysed via a HPLC-MS system with DAD and MS detection. The peak areas of all selected single DAD and ion traces are taken for the calculations. The calculation is done by external calibration against the areas of the standard samples (linear regression). The mean of all calculated values gives the water solubility of the active ingredient.

[1] = aqueous buffer, pH 7 phosphate buffer, shaken at least 24 h at 23° C., technical grade active ingredient, read-out: water solubility at pH 7

solubility [1] [µg/mL] | SMILES | solubility (23 °C, pH 7, aqueous buffer) [µg/mL]
– | CCN1OC[C@@H](NC(=O)c2ccc(C3=NO[C@@](c4cc(Cl)c(F)c(Cl)c4)(C(F)(F)F)C3)cc2C)C1=O [4-[(5S)-5-(3,5-dichloro-4-fluorophenyl)-5-(trifluoromethyl)-4,5-dihydro-1,2-oxazol-3-yl]-N-[(4R)-2-ethyl-3-oxo-1,2-oxazolidin-4-yl]-2-methylbenzamide] | < 0.01
< 0.01 | CN(C(=O)c1ccccc1)c1cccc(C(=O)Nc2c(Br)cc(C(F)(C(F)(F)F)C(F)(F)F)cc2C(F)(F)F)c1F [broflanilide, 3-[benzoyl(methyl)amino]-N-[2-bromo-4-(1,1,1,2,3,3,3-heptafluoropropan-2-yl)-6-(trifluoromethyl)phenyl]-2-fluorobenzamide, reference compound] | –
< 0.01 | CN(C(=O)c1cc(-c2cnn(-c3c(Cl)cc(C(F)(C(F)(F)F)C(F)(F)F)cc3Cl)c2)cnc1Cl)C1CC1 [2-chloro-N-cyclopropyl-5-{1-[2,6-dichloro-4-(1,1,1,2,3,3,3-heptafluoropropan-2-yl)phenyl]-1H-pyrazol-4-yl}-N-methylnicotinamide] | –
